From patent US11744824B2, “2-amino-3-carbonyl imidazopyridine and pyrazolopyridine compounds” (1ST Biotherapeutics, Inc., priority 2020, dated 2023)

Target: GST-tagged recombinant human RIP2 (Homo sapiens (Human), UniProt O43353)
Experiment: RIP2 Kinase Assay (ADP-Glo)
Type: biochemical
Conditions: in vitro kinase activity, ATP 25 μM
Protocol: GST-tagged recombinant human RIP2 (25 ng) is incubated with 5 μL of compounds (0.5% DMSO), 5 μL of MBP (0.5 μg/μl) and 5 μL of ATP (25 μM) in buffer (40 mM Tris, 7.5; 20 mM MgCl2; 0.1 mg/ml BSA; 50 μM DTT). The assay was started by incubating the reaction mixture in a 96-well plate at 30° C. for 60 minutes. After the incubation, 25 μL ADP-Glo reagent was added, and the reaction was incubated at 30° C. for 40 minutes to stop the reaction and degrade residual ATP. The ADP product was then converted to ATP by adding 50 μL per well of detection reagent. Luminescence was detected after 30 minutes room temperature incubation with the Molecular device I3X plate reader. The IC50 values were calculated from a series of percent inhibition values determined at a range of inhibitor concentration using software routines as implemented in the GraphPad Prism 7 software and SigmaPlot 13.0.

Chain of GST-tagged recombinant human RIP2 (O43353 whole entry): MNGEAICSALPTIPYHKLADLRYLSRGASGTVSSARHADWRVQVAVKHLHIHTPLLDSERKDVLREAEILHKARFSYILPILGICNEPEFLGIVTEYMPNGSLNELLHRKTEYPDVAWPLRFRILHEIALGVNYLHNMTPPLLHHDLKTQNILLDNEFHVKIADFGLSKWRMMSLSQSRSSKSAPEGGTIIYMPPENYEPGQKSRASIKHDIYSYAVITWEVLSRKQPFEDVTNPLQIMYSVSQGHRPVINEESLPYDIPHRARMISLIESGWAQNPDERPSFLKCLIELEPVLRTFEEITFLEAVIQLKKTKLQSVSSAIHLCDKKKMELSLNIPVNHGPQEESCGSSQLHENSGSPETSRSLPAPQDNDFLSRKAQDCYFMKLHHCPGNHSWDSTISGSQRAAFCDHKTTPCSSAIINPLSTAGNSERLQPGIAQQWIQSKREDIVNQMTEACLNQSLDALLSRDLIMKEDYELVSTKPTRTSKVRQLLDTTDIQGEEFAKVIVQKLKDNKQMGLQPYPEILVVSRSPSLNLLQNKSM

Structure (SMILES) | IC50 [nM]
Nc1nc2ccc(-c3cncs3)cn2c1C(=O)[C@@H]1C[C@@H]1F [Example 30] | > 1000
Nc1nc2ccc(-c3ccc[nH]3)cn2c1C(=O)[C@@H]1C[C@@H]1F [Example 124] | > 1000
Cc1c(F)cccc1-c1ccc2nc(NCCN)c(C(=O)[C@@H]3C[C@@H]3F)n2c1 [Example 93] | > 1000
CC(C)(C)OC(=O)NCc1ccccc1-c1ccc2nc(N)c(C(=O)[C@@H]3C[C@@H]3F)n2c1 [Example 137] | > 1000
Nc1nc2ccc(-c3ccc(N4CCOCC4)cc3)cn2c1C(=O)[C@@H]1C[C@@H]1F [Example 39] | > 1000
Cc1c(F)cccc1-c1ccc2nc(N3CCCC3)c(C(=O)[C@@H]3C[C@@H]3F)n2c1 [Example 71, (6-(3-fluoro-2-methylphenyl)-2-(pyrrolidin-1-yl)imidazo[1,2-a]pyridin-3-yl)((1S,2S)-2-fluorocyclopropyl)methanone] | > 1000
CNc1nc2ccc(-c3cccc(F)c3C)cn2c1C(=O)[C@@H]1C[C@@H]1F [Example 54, (6-(3-fluoro-2-methylphenyl)-2-(methylamino)imidazo[1,2-a]pyridin-3-yl)((1S,2S)-2-fluorocyclopropyl)methanone] | > 1000
Nc1nc2ccc(-c3cccc(F)c3C(F)(F)F)cn2c1C(=O)[C@@H]1C[C@@H]1F [Example 10] | > 1000
Nc1nc2ccc(-c3ccccc3CCF)cn2c1C(=O)[C@H]1C[C@@H]1F [Example 140] | > 1000
Cc1c(F)cccc1-c1ccc2nc(NCCN(C)C)c(C(=O)[C@@H]3C[C@@H]3F)n2c1 [Example 24, (2-((2-(dimethylamino)ethyl)amino)-6-(3-fluoro-2-methylphenyl)imidazo[1,2-a]pyridin-3-yl)((1S,2S)-2-fluorocyclopropyl)methanone] | > 1000
CN(C)c1c(F)c(Cl)c(-c2ccc3nc(N)c(C(=O)NC4CC4)n3c2)c2cn[nH]c12 [Example 149] | > 1000
Nc1nc2ccc(-c3ccccc3CCF)cn2c1C(=O)[C@@H]1C[C@H]1F [Example 139] | > 1000
Cc1c(F)cccc1-c1ccc2nc(N)c(C(=O)C3CNC3)n2c1 [Example 50] | 1 to 100
Cc1c(F)cccc1-c1ccc2nc(N)c(C(=O)C3CCN3C(=O)OC(C)(C)C)n2c1 (centres unmarked) [Example 36] | > 1000
Nc1nc2ccc(-c3cnc4[nH]ccc4c3)cn2c1C(=O)C1CCNC1 (centres unmarked) [Example 91] | 101 to 500
Cc1c(F)cccc1-c1ccc2nc(N)c(C(=O)C3CCC3)n2c1 [Example 20] | 101 to 500
Nc1nc2ccc(Br)cn2c1C(=O)[C@@H]1C[C@@H]1F [Example 4] | > 1000
Cc1c(F)cccc1-c1ccc2nc(N)c(C(=O)C3CC(F)(F)C3)n2c1 [Example 46] | 501 to 1000
Cc1c(-c2ccc3nc(N)c(C(=O)[C@@H]4C[C@@H]4F)n3c2)cnc2c1ccn2C [Example 106] | 101 to 500
Nc1nc2ccc(-c3cccc(F)c3CCF)cn2c1C(=O)[C@@H]1C[C@@H]1F [Example 136] | > 1000
Cc1c(F)cccc1-c1ccc2nc(N)c(C(=O)C(C)(C)C)n2c1 [Example 22] | 101 to 500
CC(C)(C)OC(=O)n1ccc(-c2ccc3nc(N)c(C(=O)[C@@H]4C[C@@H]4F)n3c2)c1 [Example 122] | > 1000
Cc1cc(F)ccc1-c1ccc2nc(N)c(C(=O)[C@H]3C[C@@H]3F)n2c1 [Example 25] | 101 to 500
CN1CCN(c2ccc(-c3ccc4nc(N)c(C(=O)[C@@H]5C[C@@H]5F)n4c3)cc2)CC1 [Example 53] | 101 to 500
Cc1cccc(F)c1-c1ccc2nc(N)c(C(=O)[C@@H]3C[C@@H]3F)n2c1 [Example 18] | 101 to 500

Second part, the molecule after the results:

IC50 [nM] | Structure (SMILES)
101 to 500 | Cc1ccc(-c2ccc3nc(N)c(C(=O)[C@@H]4C[C@@H]4F)n3c2)c(C)c1 [Example 17]
1 to 100 | Nc1nc2ccc(-c3ccc4[nH]cnc4c3)cn2c1C(=O)[C@@H]1C[C@@H]1F [Example 102]
101 to 500 | Cc1c(F)cccc1-c1cc(F)c2nc(N)c(C(=O)[C@@H]3C[C@@H]3F)n2c1 [Example 99, (2-amino-8-fluoro-6-(3-fluoro-2-methylphenyl)imidazo[1,2-a]pyridin-3-yl)((1S,2S)-2-fluorocyclopropyl)methanone]
1 to 100 | Cc1c(-c2ccc3nc(N)c(C(=O)[C@@H]4C[C@H]4F)n3c2)ccc2[nH]ccc12 [Example 162]
101 to 500 | Nc1nc2ccc(-c3cccc(F)c3OCCF)cn2c1C(=O)[C@@H]1C[C@@H]1F [Example 120]
101 to 500 | CC(=O)Nc1nc2ccc(-c3cccc(F)c3C)cn2c1C(=O)[C@@H]1C[C@@H]1F [Example 88, N-(6-(3-fluoro-2-methylphenyl)-3-((1S,2S)-2-fluorocyclopropane-1-carbonyl)imidazo[1,2-a]pyridin-2-yl)acetamide]
101 to 500 | Cc1c(F)cccc1-c1ccc2nc(N)c(C(=O)[C@@H]3C[C@H]3F)n2c1 [Example 42]
101 to 500 | Nc1nc2c(F)cc(-c3cccc4[nH]ccc34)cn2c1C(=O)[C@@H]1C[C@@H]1F [Example 96]
1 to 100 | Nc1nc2ccc(-c3ccc4occc4c3)cn2c1C(=O)[C@@H]1C[C@@H]1F [Example 63]
101 to 500 | Cc1c(F)cccc1-c1ccc2nc(N)c(C(=O)c3ccncn3)n2c1 [Example 77]
1 to 100 | Cc1c(F)cc(N)cc1-c1ccc2nc(N)c(C(=O)[C@@H]3C[C@@H]3F)n2c1 [Example 155]
1 to 100 | Nc1nc2ccc(-c3ccc4[nH]ccc4c3)cn2c1C(=O)[C@@H]1C[C@H]1F [Example 158]
1 to 100 | Cc1c(F)cccc1-c1ccc2nc(N)c(C(=O)c3ncccn3)n2c1 [Example 76]
1 to 100 | Nc1nc2ccc(-c3ccc4[nH]ncc4c3Cl)cn2c1C(=O)[C@@H]1C[C@@H]1F [Example 81]
101 to 500 | Nc1nc2ccc(-c3cccc(F)c3CCCF)cn2c1C(=O)[C@@H]1C[C@@H]1F [Example 131]
101 to 500 | Cc1cccc(F)c1-c1ccc2nc(N)c(C(=O)[C@H]3C[C@@H]3F)n2c1 [Example 26]
101 to 500 | CNc1cc(F)cc(-c2ccc3nc(N)c(C(=O)[C@@H]4C[C@@H]4F)n3c2)c1C [Example 146]
101 to 500 | CSc1c(F)c(Cl)c(-c2ccc3nc(N)c(C(=O)[C@@H]4C[C@@H]4F)n3c2)c2cn[nH]c12 [Example 66]
101 to 500 | Cc1c(F)cccc1-c1ccc2nc(N)c(C(=O)NC3CC3)n2c1 [Example 109]
101 to 500 | Nc1nc2ccc(-c3ccccc3CCF)cn2c1C(=O)[C@@H]1C[C@@H]1F [Example 130]
101 to 500 | Cc1c(-c2ccc3nc(N)c(C(=O)[C@@H]4C[C@@H]4F)n3c2)cccc1C(F)(F)F [Example 19]
101 to 500 | Cc1c(F)cccc1-c1ccc2nc(N)c(C(=O)[C@H]3C[C@@H]3F)n2c1 [Example 43]
1 to 100 | Nc1nc2ccc(-c3cncc4ccccc34)cn2c1C(=O)[C@@H]1C[C@@H]1F [Example 117]
1 to 100 | Nc1nc2ccc(-c3ccc4[nH]ncc4c3)cn2c1C(=O)[C@@H]1C[C@@H]1F [Example 80]
1 to 100 | Nc1nc2ccc(-c3cccc4cc[nH]c34)cn2c1C(=O)[C@@H]1C[C@@H]1F [Example 59]
1 to 100 | Cc1ccc(N)cc1-c1ccc2nc(N)c(C(=O)[C@@H]3C[C@@H]3F)n2c1 [Example 142]
1 to 100 | Cc1c(F)cccc1-c1ccc2nc(N)c(C(=O)c3ccccn3)n2c1 [Example 12]
1 to 100 | Cc1c(-c2cc(F)c3nc(N)c(C(=O)[C@@H]4C[C@@H]4F)n3c2)cnc2[nH]ccc12 [Example 97]
